Data published in ChEMBL document CHEMBL1132933, “Protease inhibitors: synthesis and QSAR study of novel classes of nonbasic thrombin inhibitors incorporating sulfonylguanidine and O-methylsulfonylisourea moieties at P1” (J Med Chem, 2000).

Tests used:
Trypsin = Trypsin (Homo sapiens, UniProt P07477+P07478+P35030); assay: Inhibitory activity against human trypsin (using Chromozym TH as the substrate); format: protein assay
Prothrombin = Prothrombin (Homo sapiens, UniProt P00734); assay: Inhibitory activity against human thrombin (using Chromozym TH as the substrate)

Row | Ki (Trypsin) | Ki (Prothrombin) | Structure (SMILES)
1 | 1500 nM | 63 nM | COC(=N)NS(=O)(=O)c1ccc(NC(=O)C2CCCN2C(=O)NS(=O)(=O)c2ccc(C)cc2)cc1 (stereo unspecified)
2 | 1530 nM | 43 nM | Cc1ccc(S(=O)(=O)NC(=O)N2CCCC2C(=O)Nc2ccc(S(=O)(=O)NN=C(N)N)cc2)cc1 (stereo unspecified)
3 | 1285 nM | 54 nM | N=C(N)NS(=O)(=O)c1ccc(NC(=O)[C@@H](Cc2ccccc2)NC(=O)OCc2ccccc2)cc1
4 | 1550 nM | 170 nM | COC(=N)NS(=O)(=O)c1cc(Cl)cc(Cl)c1O
5 | 1350 nM | 15 nM | Cc1ccc(S(=O)(=O)NC(=O)NCCC(=O)N[C@@H](Cc2c[nH]cn2)C(=O)Nc2ccc(S(=O)(=O)N=C(N)N)cc2)cc1
6 | 2890 nM |  | CN(C)S(=O)(=O)N=C(N)N
7 | 990 nM | 166 nM | N=C(N)NNS(=O)(=O)c1ccc([N+](=O)[O-])cc1
8 | 1400 nM | 21 nM | Cc1ccc(S(=O)(=O)NC(=O)N2CCC[C@H]2C(=O)NCC(=O)Nc2ccc(S(=O)(=O)N=C(N)N)cc2)cc1
9 | 1315 nM | 12 nM | Cc1ccc(S(=O)(=O)NC(=O)N[C@@H](Cc2ccccc2)C(=O)N2CCCC2C(=O)Nc2ccc(S(=O)(=O)N=C(N)N)cc2)cc1 (stereo partly specified)
10 | 1245 nM | 134 nM | CN(C)c1ccc(/N=N/c2ccc(S(=O)(=O)N=C(N)N)cc2)cc1
11 | 1200 nM | 177 nM | COC(=N)NS(=O)(=O)c1ccc([N+](=O)[O-])c(Cl)c1
12 | 540 nM |  | N=C(N)NCCCNC(=O)[C@@H]1CCCCN1C(=O)C(CC1CCCCC1)NCC(=O)O (stereo partly specified)
13 | 1450 nM | 10 nM | Cc1ccc(S(=O)(=O)NC(=O)N[C@@H](Cc2ccccc2)C(=O)N2CCCC2C(=O)Nc2ccc(S(=O)(=O)NN=C(N)N)cc2)cc1 (stereo partly specified)
14 | 1250 nM | 225 nM | N=C(N)NS(=O)(=O)c1c(Br)c(Br)c(Br)c(Br)c1C(=O)O
15 | 2180 nM | 565 nM | COC(=N)NS(=O)(=O)C(F)(F)C(F)(F)C(F)(F)C(F)(F)F
16 | 1460 nM | 276 nM | COC(=N)NS(=O)(=O)c1ccc(OC)cc1
17 | 1425 nM | 154 nM | COC(=N)NS(=O)(=O)c1cccc2ccccc12
18 | 1315 nM | 50 nM | N=C(N)NNS(=O)(=O)c1ccc(NC(=O)[C@@H](Cc2ccccc2)NC(=O)OCc2ccccc2)cc1
19 | 1425 nM | 91 nM | N=C(N)NNS(=O)(=O)c1ccc(N)cc1
20 | 1285 nM | 129 nM | N=C(N)NNS(=O)(=O)c1ccc2ccccc2c1

Row | Ki (Trypsin) | Ki (Prothrombin) | Structure (SMILES)
21 | 1775 nM | 270 nM | Cc1ccc(S(=O)(=O)NN=C(N)N)cc1
22 | 990 nM | 160 nM | N=C(N)NS(=O)(=O)c1ccc([N+](=O)[O-])c(Cl)c1
23 | 1350 nM | 169 nM | COC(=N)NS(=O)(=O)c1ccc(/N=N/c2ccc(N(C)C)cc2)cc1
24 | 1425 nM | 62 nM | COC(=N)NS(=O)(=O)c1ccc(NC(=O)[C@@H](Cc2ccccc2)NC(=O)OCc2ccccc2)cc1
25 | 1010 nM | 154 nM | N=C(N)NNS(=O)(=O)c1ccc([N+](=O)[O-])c(Cl)c1
26 | 1275 nM | 890 nM | N=C(N)NS(=O)(=O)C(F)(F)F
27 | 1900 nM | 450 nM | COC(=N)NS(=O)(=O)Cc1ccccc1
28 | 1230 nM | 220 nM | N=C(N)NS(=O)(=O)c1ccc(Br)cc1
29 | 1235 nM | 96 nM | COC(=N)NS(=O)(=O)c1ccc(OC)c(N)c1
30 | 1455 nM | 18 nM | Cc1ccc(S(=O)(=O)NC(=O)NCC(=O)N[C@@H](Cc2c[nH]cn2)C(=O)Nc2ccc(S(=O)(=O)N=C(N)N)cc2)cc1
31 | 1300 nM | 239 nM | COC(=N)NS(=O)(=O)c1c(Br)c(Br)c(Br)c(Br)c1C(=O)O
32 | 1200 nM | 130 nM | CN(C)c1cccc2c(S(=O)(=O)NN=C(N)N)cccc12
33 | 1200 nM | 213 nM | N=C(N)NNS(=O)(=O)c1c(Br)c(Br)c(Br)c(Br)c1C(=O)O
34 | 1025 nM | 172 nM | CC(=O)Nc1ccc(S(=O)(=O)NN=C(N)N)cc1
35 | 1340 nM | 44 nM | Cc1ccc(S(=O)(=O)NC(=O)N[C@H](Cc2ccccc2)C(=O)Nc2ccc(S(=O)(=O)NN=C(N)N)cc2)cc1
36 | 1540 nM | 27 nM | COC(=N)NS(=O)(=O)c1ccc(NC(=O)CNC(=O)[C@@H]2CCCN2C(=O)NS(=O)(=O)c2ccc(C)cc2)cc1
37 | 1375 nM | 138 nM | COC(=N)NS(=O)(=O)c1cccc2c(N(C)C)cccc12
38 | 1850 nM | 320 nM | N=C(N)NS(=O)(=O)c1ccccc1[N+](=O)[O-]
39 | 1445 nM | 240 nM | N=C(N)NS(=O)(=O)c1ccccc1C(=O)O
40 | 1200 nM | 125 nM | N=C(N)NNS(=O)(=O)c1cccc2ccccc12

Row | Ki (Trypsin) | Ki (Prothrombin) | Structure (SMILES)
41 | 2340 nM | 355 nM | COC(=N)NS(=O)(=O)c1ccccc1[N+](=O)[O-]
42 | 1335 nM | 97 nM | N=C(N)NNS(=O)(=O)c1ccc(C(=O)O)cc1
43 | 1375 nM | 213 nM | COC(=N)NS(=O)(=O)c1cccc([N+](=O)[O-])c1
44 | 1420 nM | 18 nM | COC(=N)NS(=O)(=O)c1ccc(NC(=O)C2CCCN2C(=O)[C@H](Cc2ccccc2)NC(=O)NS(=O)(=O)c2ccc(C)cc2)cc1 (stereo partly specified)
45 | 1100 nM | 219 nM | Cc1cc(C)c(S(=O)(=O)NN=C(N)N)c(C)c1
46 | 3300 nM | 1360 nM | COC(=N)NS(=O)(=O)N(C)C
47 | 1235 nM | 189 nM | COC(=N)NS(=O)(=O)c1ccc([N+](=O)[O-])cc1
48 | 1340 nM | 133 nM | COC(=N)NS(=O)(=O)c1ccc(C(=O)O)cc1
49 | 1350 nM | 146 nM | N=C(N)NS(=O)(=O)c1c(F)c(F)c(F)c(F)c1F
50 | 1145 nM | 107 nM | N=C(N)NS(=O)(=O)c1cccc(N)c1
51 | 1230 nM | 136 nM | N=C(N)NS(=O)(=O)c1cccc2ccccc12
52 | 1400 nM |  | N=C(N)NNS(=O)(=O)c1ccc(NC(=O)C2CCCN2C(=O)[C@H](Cc2ccccc2)NC(=O)OCc2ccccc2)cc1 (stereo partly specified)
53 | 1235 nM | 104 nM | N=C(N)NS(=O)(=O)c1ccc(C(=O)O)cc1
54 | 1200 nM | 280 nM | COC(=N)NS(=O)(=O)c1ccc(F)cc1
55 | 1350 nM | 330 nM | N=C(N)NS(=O)(=O)Cc1ccccc1
56 | 1090 nM | 240 nM | N=C(N)NS(=O)(=O)c1ccc(F)cc1
57 | 1555 nM | 15 nM | Cc1ccc(S(=O)(=O)NC(=O)NCC(=O)N[C@@H](Cc2c[nH]cn2)C(=O)Nc2ccc(S(=O)(=O)NN=C(N)N)cc2)cc1
58 | 1300 nM | 132 nM | N=C(N)NS(=O)(=O)c1ccc2ccccc2c1
59 | 1785 nM | 348 nM | COC(=N)NS(=O)(=O)c1c(C)cc(C)cc1C
60 | 1100 nM | 219 nM | COc1ccc(S(=O)(=O)NN=C(N)N)cc1N

Row | Structure (SMILES) | Ki (Trypsin) | Ki (Prothrombin)
61 | N=C(N)NNS(=O)(=O)c1ccc(I)cc1 | 1300 nM | 177 nM
62 | N=C(N)NNS(=O)(=O)c1ccc(Cl)cc1 | 1100 nM | 212 nM
